Source: patent US7585859B2, “PDE4B inhibitors and uses therefor” (Plexxikon, Inc., priority 2004, dated 2009)

How the values were obtained:
[1] = biological target: T1, PDE4B: The catalytic domain of human PDE4B from S152-S528 (Homo sapiens, UniProt Q07343); assay: PDE4 IC50 determination by Scintillation Proximity Assay, PDE4B; type: biochemical; conditions: Table 3A, Formula III compounds; read-out: IC50 PDE4B
T1 construct: His6 (N); thrombin cleavage site (N); made in house; host or cells: E. coli
Procedure, shortened: (§1)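 Enzyme was added to compound and [^3H]cAMP, then incubated 30 min at 30° (PDE4B 80 ng/ml; PDE4D 4 ng/ml). Product [^3H]AMP bound to SPA beads and was counted. IC50 was fitted by non-linear regression against DMSO and roflumilast controls.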

PDE4D = biological target: T2, PDE4D (Homo sapiens, UniProt Q08499); assay: PDE4 IC50 determination by Scintillation Proximity Assay, PDE4D; type: biochemical; conditions: Table 3A, Formula III compounds; read-out: IC50 PDE4D
T2 construct: PDE4D: The catalytic domain of human PDE4B from S3 16-V692; His6 (N); thrombin cleavage site (N); made in house; host or cells: E. coli
Procedure, shortened: as §1

T1 sequence (Q07343 with tags, fused parts or gaps): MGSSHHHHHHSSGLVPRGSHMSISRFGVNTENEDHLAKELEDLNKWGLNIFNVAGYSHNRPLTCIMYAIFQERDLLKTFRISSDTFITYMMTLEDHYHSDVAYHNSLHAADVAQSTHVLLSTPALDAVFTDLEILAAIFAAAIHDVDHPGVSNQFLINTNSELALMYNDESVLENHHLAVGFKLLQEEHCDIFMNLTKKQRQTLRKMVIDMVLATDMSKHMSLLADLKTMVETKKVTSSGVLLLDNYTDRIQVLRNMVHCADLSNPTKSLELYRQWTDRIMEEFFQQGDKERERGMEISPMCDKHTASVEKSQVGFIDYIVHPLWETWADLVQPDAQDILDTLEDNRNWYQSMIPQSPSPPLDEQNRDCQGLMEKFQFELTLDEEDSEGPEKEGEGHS
T2 sequence (Q08499 380-756): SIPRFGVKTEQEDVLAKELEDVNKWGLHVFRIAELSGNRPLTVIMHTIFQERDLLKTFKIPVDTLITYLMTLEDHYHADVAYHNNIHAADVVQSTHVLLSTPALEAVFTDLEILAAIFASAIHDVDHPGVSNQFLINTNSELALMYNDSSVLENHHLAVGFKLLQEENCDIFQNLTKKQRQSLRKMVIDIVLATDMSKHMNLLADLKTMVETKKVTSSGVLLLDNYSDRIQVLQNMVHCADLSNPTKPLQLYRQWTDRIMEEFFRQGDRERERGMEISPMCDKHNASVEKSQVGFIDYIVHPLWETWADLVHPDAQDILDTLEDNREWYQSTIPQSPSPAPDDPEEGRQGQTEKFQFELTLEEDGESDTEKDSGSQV

| Structure (SMILES) | IC50 [1] [µM] | IC50 (PDE4D) [µM] |
| --- | --- | --- |
| COc1cc(NS(=O)(=O)c2cc(Cl)c(Cl)s2)c2ncccc2c1 [Compound 3-9, 4,5-Dichloro-thiophene-2-sulfonic acid (6-methoxy-quinolin-8-yl)-amide] | > 10 | > 10 |
| O=S(=O)(Nc1cccc2cccnc12)c1cc(Cl)c(Cl)s1 [Compound 3-10, 4,5-Dichloro-thiophene-2-sulfonic acid quinolin-8-ylamide] | > 10 | > 10 |
| Cc1ccc2cccnc2c1NS(=O)(=O)c1cc(Cl)sc1Cl [Compound 3-11, 2,5-Dichloro-thiophene-3-sulfonic acid (7-methyl-quinolin-8-yl)-amide] | > 10 | > 10 |
| COc1cc(NS(=O)(=O)c2ccc(Cl)s2)c2ncccc2c1 [Compound 3-12, 5-Chloro-thiophene-2-sulfonic acid (6-methoxy-quinolin-8-yl)-amide] | > 10 | > 10 |
| COc1cc(NS(=O)(=O)c2cccs2)c2ncccc2c1 [Compound 3-13, Thiophene-2-sulfonic acid (6-methoxy-quinolin-8-yl)-amide] | > 10 | > 10 |
| COc1cc(NS(=O)(=O)c2ccc(-c3ccnc(SC)n3)s2)c2ncccc2c1 [Compound 3-14, 5-(2-Methylsulfanyl-pyrimidin-4-yl)-thiophene-2-sulfonic acid (6-methoxy-quinolin-8-yl)-amide] | < 10 | < 10 |
| CSc1nccc(-c2ccc(S(=O)(=O)Nc3c(C)ccc4cccnc34)s2)n1 [Compound 3-15, 5-(2-Methylsulfanyl-pyrimidin-4-yl)-thiophene-2-sulfonic acid (7-methyl-quinolin-8-yl)-amide] | > 10 | > 10 |
| CSc1nccc(-c2ccc(S(=O)(=O)Nc3cccc4cccnc34)s2)n1 [Compound 3-16, 5-(2-Methylsulfanyl-pyrimidin-4-yl)-thiophene-2-sulfonic acid quinolin-8-ylamide] | < 10 | < 10 |
| Cn1nc(-c2ccc(S(=O)(=O)Nc3cccc4cccnc34)s2)cc1C(F)(F)F [Compound 3-20, 5-(1-Methyl-5-trifluoromethyl-1H-pyrazol-3-yl)-thiophene-2-sulfonic acid quinolin-8-ylamide] | > 10 | > 10 |
| COc1cc(NS(=O)(=O)c2ccc(-c3cc(C(F)(F)F)n(C)n3)s2)c2ncccc2c1 [Compound 3-21, 5-(1-Methyl-5-trifluoromethyl-1H-pyrazol-3-yl)-thiophene-2-sulfonic acid (6-methoxy-quinolin-8-yl)-amide] | > 10 | > 10 |
| Cc1ccc2cccnc2c1NS(=O)(=O)c1ccc(-c2cc(C(F)(F)F)n(C)n2)s1 [Compound 3-22, 5-(1-Methyl-5-trifluoromethyl-1H-pyrazol-3-yl)-thiophene-2-sulfonic acid (7-methyl-quinolin-8-yl)-amide] | > 10 | > 10 |
| O=S(=O)(Nc1cccc2cccnc12)c1ccc(-c2ccon2)s1 [Compound 3-23, 5-Isoxazol-3-yl-thiophene-2-sulfonic acid quinolin-8-ylamide] | > 10 | > 10 |
| Cc1ccc2cccnc2c1NS(=O)(=O)c1ccc(-c2ccon2)s1 [Compound 3-24, 5-Isoxazol-3-yl-thiophene-2-sulfonic acid (7-methyl-quinolin-8-yl)-amide] | > 10 | > 10 |
| COc1cc(NS(=O)(=O)c2ccc(-c3ccon3)s2)c2ncccc2c1 [Compound 3-25, 5-Isoxazol-3-yl-thiophene-2-sulfonic acid (6-methoxy-quinolin-8-yl)-amide] | > 10 | > 10 |
| Cc1ccc2cccnc2c1NS(=O)(=O)c1ccc(-c2cc(C(F)(F)F)on2)s1 [Compound 3-26, 5-(5-Trifluoromethyl-isoxazol-3-yl)-thiophene-2-sulfonic acid (7-methyl-quinolin-8-yl)-amide] | > 10 | > 10 |
| COc1cc(NS(=O)(=O)c2ccc(-c3cc(C(F)(F)F)on3)s2)c2ncccc2c1 [Compound 3-27, 5-(5-Trifluoromethyl-isoxazol-3-yl)-thiophene-2-sulfonic acid (6-methoxy-quinolin-8-yl)-amide] | > 10 | > 10 |
| O=S(=O)(Nc1cccc2cccnc12)c1ccc(-c2cc(C(F)(F)F)on2)s1 [Compound 3-28, 5-(5-Trifluoromethyl-isoxazol-3-yl)-thiophene-2-sulfonic acid quinolin-8-ylamide] | > 10 | > 10 |
| Cc1ccc2cccnc2c1NS(=O)(=O)c1ccc(-c2ccccn2)s1 [Compound 3-29, 5-Pyridin-2-yl-thiophene-2-sulfonic acid (7-methyl-quinolin-8-yl)-amide] | > 10 | > 10 |
| O=S(=O)(Nc1cccc2cccnc12)c1ccc(-c2ccccn2)s1 [Compound 3-30, 5-Pyridin-2-yl-thiophene-2-sulfonic acid quinolin-8-ylamide] | > 10 | > 10 |
| COc1cc(NS(=O)(=O)c2ccc(-c3ccccn3)s2)c2ncccc2c1 [Compound 3-31, 5-Pyridin-2-yl-thiophene-2-sulfonic acid (6-methoxy-quinolin-8-yl)-amide] | < 10 | > 10 |

Now from value to molecule:

| IC50 [1] [µM] | IC50 (PDE4D) [µM] | Structure (SMILES) |
| --- | --- | --- |
| > 10 | > 10 | O=C(NCc1ccc(S(=O)(=O)Nc2cccc3cccnc23)s1)c1ccccc1 [Compound 3-32, N-[5-(Quinolin-8-ylsulfamoyl)-thiophen-2-ylmethyl]-benzamide] |
| < 10 | < 10 | Cc1nc(-c2ccc(S(=O)(=O)Nc3cccc4cccnc34)s2)cs1 [Compound 3-33, 5-(2-Methyl-thiazol-4-yl)-thiophene-2-sulfonic acid quinolin-8-ylamide] |
| < 10 | < 10 | O=S(=O)(Nc1cccc2cccnc12)c1ccc(-c2cnco2)s1 [Compound 3-34, 5-Oxazol-5-yl-thiophene-2-sulfonic acid quinolin-8-ylamide] |
| > 10 | > 10 | O=S(=O)(Nc1cccc2cccnc12)c1cc(S(=O)(=O)c2ccccc2)cs1 [Compound 3-37, 4-Benzenesulfonyl-thiophene-2-sulfonic acid quinolin-8-ylamide] |
| > 10 | > 10 | Cc1ccc2cccnc2c1NS(=O)(=O)c1ccc(S(=O)(=O)c2ccccc2)s1 [Compound 3-38, 5-Benzenesulfonyl-thiophene-2-sulfonic acid (7-methyl-quinolin-8-yl)-amide] |
| > 10 | > 10 | Cc1ccc2cccnc2c1NS(=O)(=O)c1cc(S(=O)(=O)c2ccccc2)cs1 [Compound 3-39, 4-Benzenesulfonyl-thiophene-2-sulfonic acid (7-methyl-quinolin-8-yl)-amide] |
| > 10 | > 10 | O=S(=O)(Nc1cccc2cccnc12)c1ccc(S(=O)(=O)c2ccccc2)s1 [Compound 3-40, 5-Benzenesulfonyl-thiophene-2-sulfonic acid quinolin-8-ylamide] |
| < 10 | > 10 | COc1cc(NS(=O)(=O)c2ccc(S(=O)(=O)c3ccccc3)s2)c2ncccc2c1 [Compound 3-41, 5-Benzenesulfonyl-thiophene-2-sulfonic acid (6-methoxy-quinolin-8-yl)-amide] |
| > 10 | > 10 | O=S(=O)(c1ccc(Br)s1)N(c1cccc2cccnc12)S(=O)(=O)c1ccc(Br)s1 [Compound 3-42] |
| > 10 | > 10 | COC(=O)c1ccc(S(=O)(=O)Nc2c(C)ccc3cccnc23)o1 [Compound 3-43, 5-(7-Methyl-quinolin-8-ylsulfamoyl)-furan-2-carboxylic acid methyl ester] |
| > 10 | > 10 | COC(=O)c1ccc(S(=O)(=O)Nc2cccc3cccnc23)o1 [Compound 3-44, 5-(Quinolin-8-ylsulfamoyl)-furan-2-carboxylic acid methyl ester] |
| > 10 | > 10 | COC(=O)c1ccc(S(=O)(=O)Nc2cc(OC)cc3cccnc23)o1 [Compound 3-45, 5-(6-Methoxy-quinolin-8-ylsulfamoyl)-furan-2-carboxylic acid methyl ester] |
| > 10 | > 10 | Cc1ccc(S(=O)(=O)Nc2cccc3cccnc23)cc1 [Compound 3-46, 4-Methyl-N-quinolin-8-yl-benzenesulfonamide] |
| > 10 | > 10 | Cc1ccc(S(=O)(=O)Nc2ccc(Br)c3cccnc23)cc1 [Compound 3-47, N-(5-Bromo-quinolin-8-yl)-4-methyl-benzenesulfonamide] |
| > 10 | > 10 | COc1cc(NS(=O)(=O)c2ccc(C)cc2)c2ncccc2c1 [Compound 3-48, N-(6-Methoxy-quinolin-8-yl)-4-methyl-benzenesulfonamide] |
| > 10 | > 10 | COc1cc(NS(=O)(=O)c2cc(F)ccc2C)c2ncccc2c1 [Compound 3-49, 5-Fluoro-N-(6-methoxy-quinolin-8-yl)-2-methyl-benzenesulfonamide] |
| > 10 | > 10 | COc1ccc(OC)c(S(=O)(=O)Nc2cc(OC)cc3cccnc23)c1 [Compound 3-51, 2,5-Dimethoxy-N-(6-methoxy-quinolin-8-yl)-benzenesulfonamide] |
| > 10 | > 10 | COc1cc(NS(=O)(=O)c2ccc(C#N)cc2)c2ncccc2c1 [Compound 3-52, 4-Cyano-N-(6-methoxy-quinolin-8-yl)-benzenesulfonamide] |
| > 10 | > 10 | COc1ccc(S(=O)(=O)Nc2cc(OC)cc3cccnc23)cc1 [Compound 3-53, 4-Methoxy-N-(6-methoxy-quinolin-8-yl)-benzenesulfonamide] |
